EC50 and Emax data for 18 molecules are collected here from patent publication US9822130B2, “Triazolo-pyrazinyl derivatives useful as soluble guanylate cyclase activators” (Merck Sharp & Dohme Corp., priority 2014, dated 2017).

The target of one assay is T1, sGC α1/β1 heterodimer stably expressed in CHO-K1 cell line (CHO-K1/sGC) (Homo sapiens, UniProt Q02108+Q02153).
T1 construct: expressed in transfected cells
T1 sequence (Q02108 1-690): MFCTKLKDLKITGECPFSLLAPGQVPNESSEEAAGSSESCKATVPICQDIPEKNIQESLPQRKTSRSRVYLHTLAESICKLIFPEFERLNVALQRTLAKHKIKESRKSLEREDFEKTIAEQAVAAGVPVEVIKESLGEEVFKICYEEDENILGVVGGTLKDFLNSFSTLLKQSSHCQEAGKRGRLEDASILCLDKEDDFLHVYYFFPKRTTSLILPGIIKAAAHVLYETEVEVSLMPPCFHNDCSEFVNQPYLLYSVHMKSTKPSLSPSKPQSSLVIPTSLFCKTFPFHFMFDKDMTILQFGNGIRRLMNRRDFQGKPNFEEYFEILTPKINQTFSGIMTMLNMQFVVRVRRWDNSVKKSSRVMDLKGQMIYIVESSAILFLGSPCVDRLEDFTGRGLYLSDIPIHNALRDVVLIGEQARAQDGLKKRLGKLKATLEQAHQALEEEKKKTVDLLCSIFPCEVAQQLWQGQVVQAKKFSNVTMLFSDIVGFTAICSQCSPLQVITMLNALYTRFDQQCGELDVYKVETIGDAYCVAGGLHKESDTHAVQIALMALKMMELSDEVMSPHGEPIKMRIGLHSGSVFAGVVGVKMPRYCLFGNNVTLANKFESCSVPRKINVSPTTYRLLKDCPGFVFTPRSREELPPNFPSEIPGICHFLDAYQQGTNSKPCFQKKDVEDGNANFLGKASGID
T1 sequence (Q02153 1-619): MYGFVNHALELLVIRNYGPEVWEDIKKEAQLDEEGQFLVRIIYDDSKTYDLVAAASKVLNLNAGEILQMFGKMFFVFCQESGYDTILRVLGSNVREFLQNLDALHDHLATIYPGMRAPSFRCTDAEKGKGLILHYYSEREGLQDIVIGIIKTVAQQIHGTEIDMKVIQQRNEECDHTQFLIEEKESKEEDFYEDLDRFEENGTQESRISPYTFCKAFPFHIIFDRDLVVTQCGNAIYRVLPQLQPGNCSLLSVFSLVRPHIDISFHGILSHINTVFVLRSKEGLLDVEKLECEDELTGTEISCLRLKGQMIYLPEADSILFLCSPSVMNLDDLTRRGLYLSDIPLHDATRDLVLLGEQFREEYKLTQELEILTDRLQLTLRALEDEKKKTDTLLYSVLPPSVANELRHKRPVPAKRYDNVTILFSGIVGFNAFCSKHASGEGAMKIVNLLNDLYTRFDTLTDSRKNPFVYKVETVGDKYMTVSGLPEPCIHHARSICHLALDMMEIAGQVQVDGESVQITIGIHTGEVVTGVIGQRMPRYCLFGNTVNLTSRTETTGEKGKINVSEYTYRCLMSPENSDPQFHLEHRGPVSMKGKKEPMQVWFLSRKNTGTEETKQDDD
Nature of the assay: Cell-based sGC Functional Assay (CASA Assay), cGMP generation. The following applies: CHO-K1/sGC cells, 1 hr at 37° C., cGMP by HTRF, 4P fit; presence or absence of 1 μM DETA-NO not given; read-out: IP (nM) (inflection point). In short, it runs like this:
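CHO-K1 cells stably expressing human sGC α1/β1 (4×10^5/mL, 0.5 mM IBMX) were treated with compounds (2.5% DMSO final) ± 1 μM DETA-NO for 1 hr at 37° C. Intracellular cGMP measured by HTRF. Activity expressed as % of Compound A maximal cGMP; IP and maximum fold induction from 4P fit.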
On the technique in general: Time-resolved FRET reads energy transfer from a long-lived donor to a nearby acceptor.
On to `CC1(c2ccccn2)C(=O)Nc2nc(-c3cn4ncnc4c(CCC(F)(F)C(F)(F)F)n3)nc(N)c21` (stereo not shown) [Example 11B, 4-amino-5-methyl-2-(8-(3,3,4,4,4-pentafluorobutyl)-[1,2,4]triazolo[1,5-a]pyrazin-6-yl)-5-(pyridin-2-yl)-5H-pyrrolo[2,3-d]pyrimidin-6(7H)-one], for which the EC50 was determined as 25.2 nM.

As to `CC1(c2ccc(Cl)c(F)c2)C(=O)Nc2nc(-c3cn4ncnc4c(CCC(F)(F)C(F)(F)F)n3)nc(O)c21` (stereo not shown) [Example 121B, 5-(4-chloro-3-fluorophenyl)-4-hydroxy-5-methyl-2-(8-(3,3,4,4,4-pentafluorobutyl)-[1,2,4]triazolo[1,5-a]pyrazin-6-yl)-5H-pyrrolo[2,3-d]pyrimidin-6(7H)-one], the EC50 came to 130 nM.

On to `Nc1nc(-c2cn3ncnc3c(CCCC(F)(F)F)n2)nc2c1C(c1ccc(Cl)c(F)c1)(C1CC1)C(=O)N2` (stereo not shown) [Example 33A, 4-amino-5-(4-chloro-3-fluorophenyl)-5-cyclopropyl-2-(8-(4,4,4-trifluorobutyl)-[1,2,4]triazolo[1,5-a]pyrazin-6-yl)-5H-pyrrolo[2,3-d]pyrimidin-6(7H)-one], for which the EC50 came out at 5.6 nM.

Consider `CC1(c2ccc(C#N)cn2)C(=O)Nc2nc(-c3cn4ncnc4c(CCCC(F)(F)F)n3)nc(N)c21` (stereo not shown) [Example 48A, 6-(4-amino-5-methyl-6-oxo-2-(8-(4,4,4-trifluorobutyl)-[1,2,4]triazolo[1,5-a]pyrazin-6-yl)-6,7-dihydro-5H-pyrrolo[2,3-d]pyrimidin-5-yl)nicotinonitrile], for which the EC50 was 77.9 nM.

For the molecule `Nc1nc(-c2cn3ncnc3c(CCCC(F)(F)F)n2)nc2c1C(c1ccc(Cl)cn1)(C1CC1)C(=O)N2` (stereo not shown) [Example 27A, 4-amino-5-(5-chloropyridin-2-yl)-5-cyclopropyl-2-(8-(4,4,4-trifluorobutyl)-[1,2,4]triazolo[1,5-a]pyrazin-6-yl)-5H-pyrrolo[2,3-d]pyrimidin-6(7H)-one], the EC50 came out at 278 nM.

As to `CCCc1nc(-c2nc(N)c3c(n2)NC(=O)[C@@]3(C)c2ccc(F)cc2)cn2ncnc12` [Example 52A, (S)-4-amino-5-(4-fluorophenyl)-5-methyl-2-(8-propyl-[1,2,4]triazolo[1,5-a]pyrazin-6-yl)-5,7-dihydro-6H-pyrrolo[2,3-d]pyrimidin-6-one], the EC50 came out at 63.2 nM.

With `CCCCc1nc(-c2nc(O)c3c(n2)NC(=O)C3(C)c2ccc(F)cn2)cn2ncnc12` (stereo not shown) [Example 155B, 2-(8-butyl-[1,2,4]triazolo[1,5-a]pyrazin-6-yl)-5-(5-fluoropyridin-2-yl)-4-hydroxy-5-methyl-5H-pyrrolo[2,3-d] pyrimidin-6(7H)-one], the EC50 came to 163 nM.

With `CC1(c2ccc(F)c(F)c2)C(=O)Nc2nc(-c3cn4ncnc4c(CCCC(F)(F)F)n3)nc(N)c21` (stereo not shown) [Example 38B, 4-amino-5-(3,4-difluorophenyl)-5-methyl-2-(8-(4,4,4-trifluorobutyl)-[1,2,4]triazolo[1,5-a]pyrazin-6-yl)-5H-pyrrolo[2,3-d]pyrimidin-6(7H)-one], the EC50 was 11 nM.

For the molecule `CC1(c2ccc(Cl)cc2)C(=O)Nc2nc(-c3cn4ncnc4c(CCCC(F)(F)F)n3)nc(N)c21` (stereo not shown) [Example 29A, 4-amino-5-(4-chlorophenyl)-5-methyl-2-(8-(4,4,4-trifluorobutyl)-[1,2,4]triazolo[1,5-a]pyrazin-6-yl)-5H-pyrrolo[2,3-d]pyrimidin-6(7H)-one], the EC50 stood at 11.4 nM.

Consider `Nc1nc(-c2cn3ncnc3c(CCCC(F)(F)F)n2)nc2c1C(c1nnc(C3(F)CC3)o1)(C1CC1)C(=O)N2` (stereo not shown) [Example 108A, 4-amino-5-cyclopropyl-5-(5-(1-fluorocyclopropyl)-1,3,4-oxadiazol-2-yl)-2-(8-(4,4,4-trifluorobutyl)-[1,2,4]triazolo[1,5-a]pyrazin-6-yl)-5H-pyrrolo[2,3-d] pyrimidin-6(7H)-one], for which the EC50 is 14.7 nM.

For the molecule `CC1(c2ccc(C(F)(F)F)cn2)C(=O)Nc2nc(-c3cn4ncnc4c(CCCC(F)(F)F)n3)nc(C(N)=O)c21` (stereo not shown) [Example 179B, 5-methyl-6-oxo-2-(8-(4,4,4-trifluorobutyl)-[1,2,4]triazolo[1,5-a]pyrazin-6-yl)-5-(5-(trifluoromethyl)pyridin-2-yl)-6,7-dihydro-5H-pyrrolo[2,3-d] pyrimidine-4-carboxamide], the EC50 amounted to 90.2 nM.

Take `Cc1ccc(C2(C)C(=O)Nc3nc(-c4cn5ncnc5c(CCC(F)(F)C(F)(F)F)n4)nc(O)c32)nc1` (stereo not shown) [Example 130B, 4-hydroxy-5-methyl-5-(5-methylpyridin-2-yl)-2-(8-(3,3,3,4,4,4-pentafluorobutyl)-[1,2,4]triazolo[1,5-a]pyrazin-6-yl)-5H-pyrrolo[2,3-d]pyrimidin-6(7H)-one]: the EC50 was determined as 503 nM.

With `Cc1nc2c(CCC(F)(F)C(F)(F)F)nc(-c3nc(O)c4c(n3)NC(=O)[C@@]4(C)c3ccc(F)cc3)cn2n1` [Example 133B, (S)-5-(4-fluorophenyl)-4-hydroxy-5-methyl-2-(2-methyl-8-(3,3,4,4,4-pentafluorobutyl)-[1,2,4]triazolo[1,5-a]pyrazin-6-yl)-5H-pyrrolo[2,3-d]pyrimidin-6(7H)-one], the EC50 amounted to 856 nM.

As for `CC1(c2cn(C3CC3)nn2)C(=O)Nc2nc(-c3cn4ncnc4c(CCC(F)(F)C(F)(F)F)n3)nc(N)c21` (stereo not shown) [Example 95B, 4-Amino-5-(1-cyclopropyl-1H-1,2,3-triazol-4-yl)-5-methyl-2-(8-(3,3,4,4,4-pentafluorobutyl)-[1,2,4]triazolo[1,5-a]pyrazin-6-yl)-5H-pyrrolo[2,3-d]pyrimidin-6(7H)-one], the EC50 is 257 nM.

In the case of `CCCCc1nc(-c2nc(N)c3c(n2)NC(=O)C3(C)c2ccc(C(F)(F)F)cn2)cn2ncnc12` (stereo not shown) [Example 67B, 4-amino-2-(8-butyl-[1,2,4]triazolo[1,5-a]pyrazin-6-yl)-5-methyl-5-(5-(trifluoromethyl)pyridin-2-yl)-5H-pyrrolo[2,3-d]pyrimidin-6(7H)-one], the EC50 was found to be 25.5 nM.

For the molecule `CC1(c2ccc(O)cn2)C(=O)Nc2nc(-c3cn4ncnc4c(CCC(F)(F)C(F)(F)F)n3)nc(N)c21` (stereo not shown) [Example 110A, 4-Amino-5-(5-hydroxypyridin-2-yl)-5-methyl-2-(8-(3,3,4,4,4-pentafluorobutyl)-[1,2,4]triazolo [1,5-a]pyrazin-6-yl)-5,7-dihydro-6H-pyrrolo [2,3-d]pyrimidin-6-one], the EC50 came out at 139 nM.

For `N#Cc1ccc(C2(C3CC3)C(=O)Nc3nc(-c4cn5ncnc5c(CCC(F)(F)C(F)(F)F)n4)nc(N)c32)nc1` (stereo not shown) [Example 118A, 6-(4-Amino-5-cyclopropyl-6-oxo-2-(8-(3,3,4,4,4-pentafluorobutyl)-[1,2,4]triazolo[1,5-a]pyrazin-6-yl)-6,7-dihydro-5H-pyrrolo[2,3-d]pyrimidin-5-yl)nicotinonitrile], the EC50 worked out at 84.1 nM.

On to `Nc1nc(-c2cn3ncnc3c(CCCC(F)(F)F)n2)nc2c1C(c1ccc(F)cn1)(C1CC1)C(=O)N2` (stereo not shown) [Example 34A, 4-amino-5-cyclopropyl-5-(5-fluoropyridin-2-yl)-2-(8-(4,4,4-trifluorobutyl)-[1,2,4]triazolo[1,5-a]pyrazin-6-yl)-5H-pyrrolo[2,3-d]pyrimidin-6(7H)-one], for which the EC50 turned out to be 428 nM.

Still in this assay, the particulars now being: CHO-K1/sGC cells, 1 hr at 37° C., cGMP by HTRF; presence or absence of 1 μM DETA-NO not given; read-out: % Act. (percent activation relative to maximum cGMP production of Compound A = 100%).
For `CC1(c2ccc(O)cn2)C(=O)Nc2nc(-c3cn4ncnc4c(CCC(F)(F)C(F)(F)F)n3)nc(N)c21` (stereo not shown) [Example 110A, 4-Amino-5-(5-hydroxypyridin-2-yl)-5-methyl-2-(8-(3,3,4,4,4-pentafluorobutyl)-[1,2,4]triazolo [1,5-a]pyrazin-6-yl)-5,7-dihydro-6H-pyrrolo [2,3-d]pyrimidin-6-one], the Emax was 70%.
